In patent publication US7700609B2, “Compositions useful as inhibitors of protein kinases” (Vertex Pharmaceuticals Incorporated, priority 2003, dated 2010):

Target: T1, Itk (Homo sapiens, UniProt Q08881)
T1 sequence (Q08881 1-620): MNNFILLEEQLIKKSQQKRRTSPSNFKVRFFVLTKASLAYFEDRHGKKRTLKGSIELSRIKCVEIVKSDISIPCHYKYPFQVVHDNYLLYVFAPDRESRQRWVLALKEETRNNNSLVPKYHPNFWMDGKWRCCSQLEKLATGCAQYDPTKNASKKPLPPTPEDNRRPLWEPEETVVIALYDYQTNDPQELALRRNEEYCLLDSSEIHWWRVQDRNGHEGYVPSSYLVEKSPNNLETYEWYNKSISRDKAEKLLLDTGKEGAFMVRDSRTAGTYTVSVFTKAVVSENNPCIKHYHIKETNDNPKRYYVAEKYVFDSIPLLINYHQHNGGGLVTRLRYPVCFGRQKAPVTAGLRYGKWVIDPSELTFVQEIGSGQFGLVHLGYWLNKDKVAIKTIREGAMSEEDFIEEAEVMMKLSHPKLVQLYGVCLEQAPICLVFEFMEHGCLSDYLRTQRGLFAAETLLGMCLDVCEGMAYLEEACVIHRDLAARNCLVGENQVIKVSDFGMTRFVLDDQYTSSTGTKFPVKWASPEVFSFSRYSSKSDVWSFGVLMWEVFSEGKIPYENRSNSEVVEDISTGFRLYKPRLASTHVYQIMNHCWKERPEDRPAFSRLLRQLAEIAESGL
Experiment: Itk inhibition assay: radioactivity-based (Method A)
Assay type: biochemical
Details: 15 μM ATP, read-out: IC50 in the radioactive incorporation assay (Method A)
Experimental: The compounds of the present invention were evaluated as inhibitors of human Itk kinase using either a radioactivity-based, spectrophotometric or alphascreen assay.
Assays were carried out in a mixture of 100 mM HEPES (pH 7.5), 10 mM MgCl2, 25 mM NaCl, 0.01% BSA and 1 mM DTT. Final substrate concentrations were 15 μM [γ-^33P]ATP (400 μCi ^33P ATP/μmol ATP, Amersham Pharmacia Biotech/Sigma Chemicals) and 2 μM peptide (SAM68 protein Δ332-443). Assays were carried out at 25° C. in the presence of 30 nM Itk. An assay stock buffer solution was prepared containing all of the reagents listed above, with the exception of ATP and the test compound of interest. 50 μL of the stock solution was placed in a 96 well plate followed by addition of 1.5 μL of DMSO stock containing serial dilutions of the test compound (typically starting from a final concentration of 15 μM with 2-fold serial dilutions) in duplicate (final DMSO concentration 1.5%). The plate was pre-incubated for 10 minutes at 25° C. and the reaction initiated by addition of 50 μL [γ-^33P]ATP (final concentration 15 μM).
The reaction was stopped after 10 minutes by the addition of 50 μL of a TCA/ATP mixture (20% TCA, 0.4 mM ATP). A Unifilter GF/C 96 well plate (Perkin Elmer Life Sciences, Cat no. 6005174) was pretreated with 50 μL Milli Q water prior to the addition of the entire reaction mixture (150 μL). The plate was washed with 200 μL Milli Q water followed by 200 μL of a TCA/ATP mixture (5% TCA, 1 mM ATP). This wash cycle was repeated a further 2 times. After drying, 30 μL Optiphase ‘SuperMix’ liquid scintillation cocktail (Perkin Elmer) was added to the well prior to scintillation counting (1450 Microbeta Liquid Scintillation Counter, Wallac).
IC50 data were calculated from non-linear regression analysis of the initial rate data using the Prism software package (GraphPad Prism version 3.0cx for Macintosh, GraphPad Software, San Diego Calif., USA).

Row | IC50 [nM] | SMILES
1 | < 1000 | COc1cccc(-c2cc3c(s2)CCc2cnc(Nc4ccc(O)cc4)nc2-3)c1 [Compound I-23]
2 | < 1000 | Nc1cccc(-c2cc3c(s2)CCc2cnc(Nc4cccc(S(N)(=O)=O)c4)nc2-3)c1 [Compound I-10]
3 | < 1000 | N#Cc1cccc(-c2cc3c(s2)CCc2cnc(Nc4cccc(S(N)(=O)=O)c4)nc2-3)c1 [Compound I-12]
4 | < 1000 | COc1cccc(-c2cc3c(s2)CCc2cnc(Nc4ccc(S(N)(=O)=O)cc4)nc2-3)c1 [Compound I-18]
5 | < 1000 | NS(=O)(=O)c1cccc(Nc2ncc3c(n2)-c2cc(-c4cccc(Cl)c4)sc2CC3)c1 [Compound I-15]
6 | < 1000 | COc1cccc(-c2cc3c(s2)CCc2cnc(Nc4cccc(S(N)(=O)=O)c4)nc2-3)c1 [Compound I-2]
